We go through 18 compounds from patent publication US20100190856A1, “Novel Polyhydroxylated Compounds as Fatty Acid Synthase (FASN) Inhibitors” (UNIVERSIDAD COMPLUTENSE DE MADRID, priority 2007, published 2010).

A word on the melting point: it is the temperature of the solid-liquid transition. A word on the IC50: it is the concentration that gives 50% inhibition.

Series [1] has as its system SK-Br3 breast cancer cells. In words: MTT cytotoxicity assay, SK-Br3 breast cancer cells. It is filed as cell-based, human. Conditions: Homo sapiens, SK-BR-3, 48 h, MTT, 48 h, read-out: IC50, growth inhibition, SK-Br3. As for the experimental part: (§1) MCF-7 and MDA-MB-231 breast cancer cells were obtained from the American Type Culture Collection (ATCC) and were routinely grown in Dulbecco's modified Eagle's medium (DMEM, Gibco) containing 10% fetal bovine serum (FBS, Bio-Whittaker), 1% L-glutamine, 1% sodium pyruvate, 50 U/mL penicillin and 50 μg/mL streptomycin. SK-Br3 breast cancer cells were obtained from Eucellbank (Universidad de Barcelona, Spain) and were passaged in McCoy's 5 A medium containing 10% FBS, 1% L-glutamine, 1% sodium pyruvate, 50 U/mL penicillin and 50 μg/mL streptomycin. Non-malignant fibroblasts N-1 were obtained from Eucellbank (Universidad de Barcelona, Spain) and were passaged in DMEM medium containing 10% FBS, 1% L-glutamine, 1% sodium pyruvate, 50 U/mL penicillin and 50 μg/mL streptomycin. The cells remained free of Mycoplasma and were propagated in adherent culture according to established protocols. Cells were maintained at 37° C. in a humidified atmosphere of 95% air and 5% CO2.
(§2) Drug sensitivity was determined using a standard colorimetric MTT (3-4,5-dimethylthiazol-2-yl-2,5-diphenyltetrazolium bromide) assay. Briefly, cells were plated out at a density of 7×10^3 cells/100 μL/well in 96-well microtitre plates and allowed an overnight period for attachment. Then the medium was removed and fresh medium along with various concentrations of the tested compound were added to the cultures for a period of 48 h. Following the treatment, the cells were fed with drug-free medium (100 μL/well) and 10 μL of MTT solution (5 mg/mL; Sigma, St. Louis, Mo.), and the incubation was prolonged for 3 h at 37° C. After carefully removing the supernatants, the MTT-formazan crystals formed by metabolically viable cells were dissolved in dimethyl sulphoxide (100 μL/well) and the absorbance was measured at 570 nm in a multi-well plate reader (Model Anthos Labtec 2010 1.7 reader).
For orientation: Formazan colour is commonly taken as a measure of viable cells.

The test system of series [2] is MCF-7 breast cancer cells. Nature of the series: MTT cytotoxicity assay, MCF-7 breast cancer cells. The class given is cell-based, human. Conditions: Homo sapiens, MCF7, MCF-7 cells, 48 h, read-out: IC50, growth inhibition, MCF-7. The protocol: as §1, §2
Series [3] relates to MDA-MB-231 breast cancer cells. In words: MTT cytotoxicity assay, MDA-MB-231 breast cancer cells. It is filed as cell-based, human. Particulars: Homo sapiens, MDA-MB-231 cells, 48 h, read-out: IC50, growth inhibition, MDA-MB-231. As for the experimental part: as §1, §2
Series [4] relates to Non-malignant fibroblasts N-1. In words: MTT cytotoxicity assay, non-malignant fibroblasts N-1. It is filed as cell-based. Conditions: for IC50: Fibroblast, non-malignant fibroblasts, MTT, 48 h, read-out: IC50, growth inhibition, Fibroblasts; for effects in cell death / morphology changes in non-malignant cells: up to doses three-fold their cytotoxic IC50 value in tumoral cells. The protocol: as §1, §2

The next series concerns the target T1, FASN (Homo sapiens, UniProt P49327).
T1 construct: endogenous in cells; host or cells: SK-Br3 breast cancer cells
Nature of the series: Fatty acid synthase activity assay in SK-Br3 cells (NADPH oxidation, particle-free supernatants). The class given is cell-based. Also noted: FASN activity, % of control cells / FASN activity reduced to / reduction of FASN activity: concentration or dose not given beside the values. Conditions: for inhibition of FASN activity (in words): SK-Br3 cells treated 6, 12 and 24 hours; for FASN activity reduced to: 12 h exposure. As for the experimental part: FASN activity of compounds a, b, e, f, h, i, k, m and q was assayed in particle-free supernatants by recording spectrophotometrically at 37° C. (Lambda Bio 20, Perkin Elmer, EUA; using UV Kinlab 2.80.02 software) the decrease of A340nm due to the oxidation of NADPH, as we previously described. After 6, 12, 24 h of exposure to the tested compound, the cells were harvested by treatment with trypsin-EDTA solution, pelleted by centrifugation, washed twice and resuspended in cold PBS. The cells were sonicated during 30 min at 4° C. (PSelecta ultrasons) and centrifuged for 15 min at 4° C. to keep supernatants particle-free. A sample was taken to measure the protein content by a BioRad assay (Bio-Rad Laboratories). One-hundred and twenty micrograms of protein were pre-incubated during 15 min at 37° C. in 0.2 M of potassium phosphate buffer, pH 7.0, for temperature equilibration. The sample was then added to the reaction mixture: 200 mM potassium phosphate buffer, pH 7.0, 1 mM EDTA (Sigma), 1 mM dithiothreitol (Sigma), 30 μM acetyl-CoA (Sigma), 0.24 mM NADPH (Sigma), in 0.3 mL reaction volume were monitored at 340 nm for 3 min to measure the background NADPH oxidation. After the addition of 50 μM of malonyl-CoA (Sigma), the reaction was assayed for additional 10 min to determine FASN-dependent oxidation of NADPH. Rates were corrected for the background rate of NADPH oxidation in the presence of acetyl-CoA. FASN activity was expressed in nmol NADPH oxidized min^−1 mg protein^−1.

“Also recorded” adds a separate entry of the source.

T1 sequence (P49327 whole entry): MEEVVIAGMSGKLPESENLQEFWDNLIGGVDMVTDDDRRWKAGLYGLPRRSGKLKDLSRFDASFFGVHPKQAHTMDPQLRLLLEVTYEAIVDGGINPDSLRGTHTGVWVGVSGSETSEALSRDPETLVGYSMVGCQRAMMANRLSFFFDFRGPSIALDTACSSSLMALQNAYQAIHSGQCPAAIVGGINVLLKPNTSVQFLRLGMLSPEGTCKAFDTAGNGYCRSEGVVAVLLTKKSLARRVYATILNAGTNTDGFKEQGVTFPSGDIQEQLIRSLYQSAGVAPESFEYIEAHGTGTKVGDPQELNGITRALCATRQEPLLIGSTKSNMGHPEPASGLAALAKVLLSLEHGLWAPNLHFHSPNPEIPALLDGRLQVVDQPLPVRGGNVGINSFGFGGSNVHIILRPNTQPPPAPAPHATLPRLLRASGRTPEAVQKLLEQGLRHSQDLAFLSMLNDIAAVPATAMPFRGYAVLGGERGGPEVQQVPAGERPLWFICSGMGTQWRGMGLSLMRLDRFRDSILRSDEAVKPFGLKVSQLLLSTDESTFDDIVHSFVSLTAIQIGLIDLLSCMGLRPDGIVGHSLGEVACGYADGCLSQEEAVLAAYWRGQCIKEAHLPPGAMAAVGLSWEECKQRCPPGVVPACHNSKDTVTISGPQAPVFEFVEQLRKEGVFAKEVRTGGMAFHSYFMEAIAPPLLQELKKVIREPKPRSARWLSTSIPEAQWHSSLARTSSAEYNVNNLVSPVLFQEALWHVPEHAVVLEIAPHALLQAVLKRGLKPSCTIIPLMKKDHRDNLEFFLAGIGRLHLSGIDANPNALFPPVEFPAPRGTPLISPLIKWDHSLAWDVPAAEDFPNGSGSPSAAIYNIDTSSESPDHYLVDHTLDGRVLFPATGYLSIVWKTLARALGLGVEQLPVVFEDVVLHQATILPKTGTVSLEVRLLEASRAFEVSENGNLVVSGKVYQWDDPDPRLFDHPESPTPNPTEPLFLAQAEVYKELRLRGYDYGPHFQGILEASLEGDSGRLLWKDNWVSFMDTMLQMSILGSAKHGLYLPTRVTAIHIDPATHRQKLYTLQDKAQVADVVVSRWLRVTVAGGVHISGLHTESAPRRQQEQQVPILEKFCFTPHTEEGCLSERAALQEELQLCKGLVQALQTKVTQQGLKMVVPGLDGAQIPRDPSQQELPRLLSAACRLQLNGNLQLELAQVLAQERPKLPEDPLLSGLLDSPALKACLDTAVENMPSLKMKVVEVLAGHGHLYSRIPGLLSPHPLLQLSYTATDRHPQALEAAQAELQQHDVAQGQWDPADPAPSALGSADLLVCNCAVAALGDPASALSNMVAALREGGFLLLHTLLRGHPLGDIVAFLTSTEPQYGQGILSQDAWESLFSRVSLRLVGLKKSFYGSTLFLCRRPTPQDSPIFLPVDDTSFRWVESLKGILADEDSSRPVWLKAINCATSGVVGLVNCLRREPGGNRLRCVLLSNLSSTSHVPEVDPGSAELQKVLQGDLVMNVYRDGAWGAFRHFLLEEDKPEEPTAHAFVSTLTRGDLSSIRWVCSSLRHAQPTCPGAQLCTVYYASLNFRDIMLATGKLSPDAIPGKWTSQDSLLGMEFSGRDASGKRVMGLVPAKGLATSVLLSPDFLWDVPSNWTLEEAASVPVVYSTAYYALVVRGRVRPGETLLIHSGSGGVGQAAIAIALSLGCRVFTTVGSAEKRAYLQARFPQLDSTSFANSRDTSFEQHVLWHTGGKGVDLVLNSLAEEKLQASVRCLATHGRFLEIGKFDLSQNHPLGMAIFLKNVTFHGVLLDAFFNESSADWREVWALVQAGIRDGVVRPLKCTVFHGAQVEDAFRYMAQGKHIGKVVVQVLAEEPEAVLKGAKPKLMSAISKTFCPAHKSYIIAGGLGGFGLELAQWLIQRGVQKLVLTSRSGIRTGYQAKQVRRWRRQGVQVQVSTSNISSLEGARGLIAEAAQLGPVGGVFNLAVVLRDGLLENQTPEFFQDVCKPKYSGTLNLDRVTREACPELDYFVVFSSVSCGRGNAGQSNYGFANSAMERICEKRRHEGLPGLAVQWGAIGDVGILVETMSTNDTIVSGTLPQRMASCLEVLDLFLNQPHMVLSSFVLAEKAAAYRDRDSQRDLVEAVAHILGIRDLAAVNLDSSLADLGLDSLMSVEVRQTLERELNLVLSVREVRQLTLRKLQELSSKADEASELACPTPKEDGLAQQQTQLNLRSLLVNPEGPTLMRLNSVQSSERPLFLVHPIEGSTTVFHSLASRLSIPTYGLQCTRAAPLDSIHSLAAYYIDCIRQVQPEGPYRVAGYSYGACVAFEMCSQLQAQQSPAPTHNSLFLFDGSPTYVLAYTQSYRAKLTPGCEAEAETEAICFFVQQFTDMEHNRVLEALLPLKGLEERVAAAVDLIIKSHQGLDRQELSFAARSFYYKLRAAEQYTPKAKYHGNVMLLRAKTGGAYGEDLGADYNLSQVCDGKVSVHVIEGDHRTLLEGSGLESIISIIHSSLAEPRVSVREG

`Cc1c(O)cc(C(=O)Oc2ccc(OC(=O)c3cc(O)c(C)c(O)c3)c3c2CCCC3)cc1O` [aa, 1,4-bis[(3,5-dihydroxy-4-methylbenzoyl)oxy]-5,6,7,8-tetrahydronaphthalene]: the melting point is 204 °C (dec.). Further, the IC50 in series [1] was 49.5 ± 4.9 µM.

Consider `Cc1cc(OC(=O)c2cc(O)c(O)c(O)c2)ccc1OC(=O)c1cc(O)c(O)c(O)c1` [c, 2-methyl-1,4-bis[(3,4,5-trihydroxybenzoyl)oxy]benzene], for which the IC50 was 4.5 µM in series [2], 54.7 ± 7.6 µM in series [3], 23.3 ± 2.1 µM in series [1] and above 100 µM in series [4]. For the same compound, in series [4], the “effects in cell death / morphology changes in non-malignant cells” value was “No significant effects”.

Regarding `COC(=O)c1cc(OC(=O)c2cc(O)c(O)c(O)c2)c2ccccc2c1OC(=O)c1cc(O)c(Br)c(O)c1` [cc, methyl 1-[(4-bromo-3,5-dihydroxybenzoyl)oxy]-4-[(3,4,5-trihydroxybenzoyl)oxy]-2-naphthoate], in series [1], the IC50 is 16.5 ± 4.9 µM. For the same compound, in series [4], the IC50 stood at 91.5 ± 2.1 µM and the “effects in cell death / morphology changes in non-malignant cells” value is “No significant effects”.

Consider `COc1cc(OC(=O)c2cc(O)c(O)c(O)c2)ccc1OC(=O)c1cc(O)c(O)c(O)c1` [d, 2-methoxy-1,4-bis[(3,4,5-trihydroxybenzoyl)oxy]benzene], for which the IC50 was 30 ± 0.1 µM in series [2], 28 ± 1 µM in series [3], 8.3 ± 1.1 µM in series [1] and above 50 µM in series [4]. Also, the “effects in cell death / morphology changes in non-malignant cells” value in series [4] was “No significant effects”.

Take `COC(=O)c1cc(OC(=O)c2cc(O)c(O)c(O)c2)c2ccccc2c1OC(=O)c1cccc(O)c1` [dd, methyl 1-[(3-hydroxybenzoyl)oxy]-4-[(3,4,5-trihydroxybenzoyl)oxy]-2-naphthoate]: the IC50 in series [1] was 15.5 ± 3.5 µM. Further, in series [4], the IC50 was determined as 39.5 ± 6.4 µM and the “effects in cell death / morphology changes in non-malignant cells” value is listed as “No significant effects”.

Regarding `COC(=O)c1cc(OC(=O)c2cc(O)c(O)c(O)c2)c2ccccc2c1OC(=O)c1ccc(O)cc1` [ee, methyl 1-[(4-hydroxybenzoyl)oxy]-4-[(3,4,5-trihydroxybenzoyl)oxy]-2-naphthoate], the IC50 in series [1] came out at 33 ± 1.4 µM. Besides, in series [4], the IC50 came out at 67.5 ± 4.9 µM and the “effects in cell death / morphology changes in non-malignant cells” value was “No significant effects”.

As to `O=C(Oc1cc(OC(=O)c2ccc(O)c(O)c2)c2ccccc2c1)c1ccc(O)c(O)c1` [h, 1,3-bis[(3,4-dihydroxybenzoyl)oxy]naphthalene], the figures for the IC50 in series [3], in series [1] and in series [4] were 19 ± 1.1 µM, 20.7 ± 11.5 µM and 105 µM, respectively. Also, the “effects in cell death / morphology changes in non-malignant cells” value in series [4] is reported as “No significant effects”. In addition, the “inhibition of FASN activity (in words)” value on FASN was “inhibit FASN activity”. Also, the “FASN activity reduced to” value at FASN (SK-Br3 cells) turned out to be 77%.

Regarding `O=C(Oc1ccc(OC(=O)c2ccc(O)c(O)c2)c2ccccc12)c1ccc(O)c(O)c1` [k, 1,4-bis[(3,4-dihydroxybenzoyl)oxy]naphthalene], the IC50 turned out to be 49.3 ± 10 µM in series [2], 27 ± 11.3 µM in series [3], 37.5 ± 6.4 µM in series [1] and 68 µM in series [4]. In addition, the “effects in cell death / morphology changes in non-malignant cells” value in series [4] was “No significant effects”. Further, the “inhibition of FASN activity (in words)” value against FASN is recorded as “inhibit FASN activity”. Moreover, the “FASN activity reduced to” value at FASN (SK-Br3 cells) was 44%.

With `O=C(Oc1ccc2cc(OC(=O)c3cc(O)c(O)c(O)c3)ccc2c1)c1cc(O)c(O)c(O)c1` [l, 2,6-bis[(3,4,5-trihydroxybenzoyl)oxy]naphthalene], the IC50 in series [2] was 13 ± 1.8 µM; in series [3], 15.3 ± 1 µM; in series [1], 5.5 ± 1 µM; in series [4], above 200 µM. For the same compound, the “effects in cell death / morphology changes in non-malignant cells” value in series [4] is reported as “No significant effects”.

As for `O=C(Oc1cccc2c(OC(=O)c3cc(O)c(O)c(O)c3)cccc12)c1cc(O)c(O)c(O)c1` [m, 1,5-bis[(3,4,5-trihydroxybenzoyl)oxy]naphthalene], the IC50 in series [2] was 69 ± 14 µM; in series [3] it was 186 ± 10 µM; in series [1] it was 25.7 ± 3 µM; in series [4], above 150 µM. For the same compound, the “effects in cell death / morphology changes in non-malignant cells” value in series [4] was “No significant effects”. Moreover, the “inhibition of FASN activity (in words)” value against FASN is reported as “inhibit FASN activity; also recorded: decreased in a time-dependent manner”. Besides, the “FASN activity reduced to” value on FASN (SK-Br3 cells) was 77%. For the same compound, the “FASN activity, % of control cells” value at FASN (SK-Br3 cells, 24 h exposure) is given as 76%.

In the case of `O=C(Oc1ccc(-c2ccc(OC(=O)c3cc(O)nc(O)c3)cc2)cc1)c1cc(O)nc(O)c1` [r, 4,4′-bis[(2,6-dihydroxyisonicotinoyl)oxy]-1,1′-biphenyl], the melting point was 285 °C (dec.).

As for `O=C(Oc1ccc(-c2ccc(OC(=O)c3cc(O)cc(O)c3)cc2)cc1)c1cc(O)cc(O)c1` [s, 4,4′-bis[(3,5-dihydroxybenzoyl)oxy]-1,1′-biphenyl], the IC50 in series [3] was 5.75 ± 2 µM; in series [1], 7.3 ± 2 µM; in series [4], 33 ± 3 µM. The “effects in cell death / morphology changes in non-malignant cells” value in series [4] was “No significant effects”.

With `O=C(Oc1ccc(-c2ccc(OC(=O)c3ccc(O)c(O)c3)cc2)cc1)c1ccc(O)c(O)c1` [t, 4,4′-bis[(3,4-dihydroxybenzoyl)oxy]-1,1′-biphenyl], the melting point was 286 °C (dec.). The IC50 in series [1] came out at 90 µM.

`O=C(Oc1ccc(-c2ccc(OC(=O)c3cc(O)c(Br)c(O)c3)cc2)cc1)c1ccc(O)c(O)c1` [u, 4′[(3,4-dihydroxybenzoyl)oxy]-1,1′-biphenyl-4-yl 4-bromo-3,5-dihydroxybenzoate] came in with a melting point of 252 to 254 °C. Further, in series [1], the IC50 is 31 µM.

In the case of `COc1cc(C(=O)Oc2ccc(-c3ccc(OC(=O)c4ccc(O)c(O)c4)cc3)cc2)cc(O)c1O` [v, 4′[(3,4-dihydroxybenzoyl)oxy]-1,1′-biphenyl-4-yl 3,4-dihydroxy-5-methoxybenzoate], the melting point was 240 °C (dec.). In addition, in series [1], the IC50 was below 1 µM.

Take `O=C(Oc1cc(OC(=O)c2cc(O)c(Br)c(O)c2)c2ccccc2c1)c1cc(O)c(Br)c(O)c1` [w, 1,3-bis[(4-bromo-3,5-dihydroxybenzoyl)oxy]naphthalene]: the IC50 in series [1] was determined as 46.7 ± 11.7 µM. Also, in series [4], the IC50 was 79.5 ± 14.8 µM and the “effects in cell death / morphology changes in non-malignant cells” value is “No significant effects”.

`O=C(Oc1cc2c(c(OC(=O)c3cc(O)c(O)c(O)c3)c1)CCCC2)c1cc(O)c(O)c(O)c1` [y, 1,3-bis[(3,4,5-trihydroxybenzoyl)oxy]-5,6,7,8-tetrahydronaphthalene]: the IC50 in series [2] is 81 ± 16 µM; in series [3], 98 ± 11 µM; in series [1], 31 ± 3 µM; in series [4] it was above 150 µM. Besides, the “effects in cell death / morphology changes in non-malignant cells” value in series [4] is reported as “No significant effects”.

Turning to `O=C(Oc1ccc(OC(=O)c2cc(O)c(O)c(O)c2)c2c1CCCC2)c1cc(O)c(O)c(O)c1` [z, 1,4-bis[(3,4,5-trihydroxybenzoyl)oxy]-5,6,7,8-tetrahydronaphthalene], the IC50 in series [2] was 43 ± 10 µM; in series [3], 104 ± 10 µM; in series [1] it was 41 ± 3 µM; in series [4] it was 128 ± 32 µM. In addition, the “effects in cell death / morphology changes in non-malignant cells” value in series [4] is on record as “No significant effects”.
